A short description of data set [1]: Plasma OT after intestinal delivery of OT in pups (EIA). Type of data set: in vivo, mice. On the procedure:
To confirm that the above increase after oral administration was primarily owing to permeability from the intestine, 5 μL of 100 μM OT (0.5 μg/pup) was applied directly into the small intestine, bypassing the mouth, buccal mucosal membrane, and/or upper parts of the digestive tract, including the oesophagus and stomach. The plasma OT in blood samples collected from the neck (Fig. 2a, inset) reached a peak at 10 min and decreased at 60 min and 120 min after intestinal application (Supplementary Fig. 1). […] The plasma OT level was higher at PND1 and PND3 than at PND7 in the group injected with OT (***P < 0.001 and **P < 0.01; Fig. 2a).
OT (100 μM) was injected through needles (28 G) into the proximal part (1~2 cm from the pylorus) of the small intestine of pups (5 μL) and adults (100 μL) under ketamine anaesthesia ([…] intraperitoneally), after the abdominal skin was cut to expose the small intestine in the abdominal cavity. The intestine was returned to the cavity or covered with paper and rinsed with saline. For the isolated pup intestines, 30 μL of 10 μM OT was injected at the distal end.
(§1) Approximately 30 μL of blood was collected from the facial vein of neonates after quick cold anesthesia on ice (Fig. 1a; ref. [67], [68]). […]
(§2) OT or AVP immunoreactivity levels were quantified by using OT and AVP enzyme immunoassay (EIA) kits (Enzo Life Sciences, NY, USA), respectively. […]

A short description of data set [2]: Plasma OT after oral delivery of OT in adult mice (EIA). Type of data set: in vivo. The method, then: In adult male mice (8 weeks old), when oral OT was administered at the same dose used for neonates (1 μg/mouse), as in Fig. 1b, no increase in the plasma OT concentration was observed (data not shown). To examine whether permeability exists in the adult intestine after barrier formation, a 10-fold higher volume of OT (100 μM × 100 μL) was used for oral delivery (10 μg/mouse). Blood samples were collected from anesthetized mice using a tail snip procedure, and OT concentrations were measured (Fig. 5a, inset).
Milk-borne OT was fed by mothers for 20 min after 20 min of starvation. A synthetic OT solution (100 µM; 10 μL for pups and 100 μL for adults) was administered orally. The same dose of [ILe^13C, ^15N]OT was delivered orally to pups. For oral administration, pups or adult mice were held by hand, and the OT solution was dispensed into their mouths using polypropylene tips.
as §1, §2

Data set [3] in a line: Plasma OT after suckling of dam's milk in pups, estimate of availability. In kind it is in vivo, mice. The method, then: […] No clear difference in the OT level was observed between male and female pups.
An estimation of bioavailability was performed in adult mice. Fifty ng/mL of OT was detected after oral delivery of 10 μg of OT. Young adults weigh approximately 30 g and have 2.3 mL blood, so approximately 1% of oral OT can be absorbed. We have previously identified OT in the mammary tissues of mouse dams and in the milk curd inside the oesophagi of pups[13]. To determine the OT concentrations in milk, we needed to collect milk from the mothers. One common method is to collect milk after stimulating secretion with external OT. Because such milk contains external OT, we were unable to calculate the OT concentrations in milk. However, we carried out a new collection method without exogenous OT stimulation. We obtained samples at 5 days after parturition, and the concentration of milk OT was 1,200 pg/mL. If we estimate a pup’s milk intake to be 100 μL, the pups will ingest 120 pg of OT. […] According to Tanaka et al.[11], when [^3H]OT is administered to lactating rats, the radioactivity of intact OT in the neonatal content is 4.4% of the counts obtained for the maternal plasma. […]
as §2

Data set [4] is described as follows: Plasma OT after oral delivery of OT in pups (EIA). Type of data set: in vivo, mice. To be noted: both sexes, C57BL/6N, 1 μg/mouse, wild-type pups PND6, oral 1 μg of OT/mouse, n = 5–8, read-out: Time of peak plasma OT concentration (converted). The method, then: The possibility of transport during the suckling period of development (from PND1 to PND15) was confirmed by comparing plasma OT levels at 10 min after oral delivery with 10 μL of 100 μM synthetic OT solution (1 μg/pup) or the same volume of phosphate buffered saline (PBS) to male and female pups after fasting for 30 min. […] The plasma OT concentrations after oral OT delivery remained at higher levels at PND3–5 than in the saline controls (two-way analysis of variance (ANOVA), F 8.90 = 3.32, P < 0.002: Bonferroni’s post hoc tests for differences between OT and PNDs (^a P < 0.001, ^b P < 0.01, and ^c P < 0.05 from the value at PND8) and between OT and PBS (^d P < 0.01). The OT concentration dropped suddenly after PND6, although it remained higher than that in the saline control group. At PND8 and PND15, no concentration difference in plasma OT levels was observed between pups orally administered OT vs. those administered PBS.
The time profile of the plasma OT concentration after oral administration of OT peaked at 10 min in pups at PND6 (n = 5–8, one-way ANOVA, F 5,37 = 3.302, P < 0.02 from the control value; Fig. 1c). The plasma OT level depended on the oral OT dose in pups at PND6 (one-way ANOVA, F 3,24 = 20.35, P < 0.0001; Fig. 1d). […]
as §2

For data set [5] the following is noted: much longer in mucosal tissues; cited from earlier work. From the text:
OT absorption through the intestine was more difficult to detect in adults. The reasons for this difference with age may be owing to the progressive digestion of OT and strengthening of the gastrointestinal tract barrier. Similarly, a gradual decline in plasma OT concentrations during development appears to be caused by establishment of the intestinal barrier and intestinal digestion (Ref. [49] and Fig. 3d). Digestion is at a low level at birth and increases progressively during the first week in mice and humans. However, digestion of OT takes more than 30 min and is much longer in mucosal ...

The conditions of data set [6]: cited from earlier work. From the text: Breast milk contains a dynamic supply of hormones, including oxytocin (OT[4], [5], [10]–[15]), which is concentrated from the mother’s general circulation. […] OT in early life plays a role in the development of the social brain and in establishing social behaviour in adults, [20]–[23]. Therefore, breast milk not only nourishes beneficial microbes and provides immunity but also appears to improve well-being by improving human communication, [24]–[28]. Altho ...

For data set [7] the following is noted: [3H]OT administered to lactating rats; cited from earlier work.

On to `CC[C@H](C)[C@@H]1NC(=O)[C@H](Cc2ccc(O)cc2)NC(=O)[C@@H](N)CSSC[C@@H](C(=O)N2CCC[C@H]2C(=O)N[C@@H](CC(C)C)C(=O)NCC(N)=O)NC(=O)[C@H](CC(N)=O)NC(=O)[C@H](CCC(N)=O)NC1=O` [OT, oxytocin], for which the Tmax in data set [1] (both sexes, C57BL/6N, mouse, plasma, pups (PND5, Supplementary Fig. 1), 0.5 μg/pup into the small intestine, read-out: Time of peak plasma OT concentration (converted)) is 10 min; in data set [4], 10 min. Also, in data set [1] (wild-type pups, 10 min after intestinal OT injection (0.5 μg/pup)), the “Decrease of plasma OT concentration from PND1 to PND7” value is “approximately 4.6 fold”. Also, the “Change of plasma OT concentration” value in data set [2] (adult male mice (8 weeks old), oral 1 μg/mouse, data not shown) is “no increase”. In addition, the “Oral OT absorbed (estimated bioavailability)” value in data set [2] (adult mice, oral 10 μg of OT, assumes 30 g weight and 2.3 mL blood) is “approximately 1%”. Also, in data set [3] (PND5 pups, milk OT 1,200 pg/mL, milk intake 100 μL (120 pg), blood volume 200 μL, increase 20 pg), the “Availability of milk OT” value is given as 16.6%. In addition, in data set [3] (pups fed with dam's milk), the “Increase of plasma OT after suckling” value was “approximately 100 pg/mL”. Moreover, the “Time for digestion of OT” value in data set [5] is “more than 30 min”. The “Stability in gastric acid” value in data set [6] is on record as “relatively stable”.

For the compound “[^3H]OT: tritium-labelled oxytocin administered to lactating rats in a cited study”, the “Radioactivity of intact OT in the neonatal content, % of the counts of maternal plasma” value in data set [7] is 4.4%.

(Values after article PMC5554167, “Intestinal transepithelial permeability of oxytocin into the blood is dependent on the receptor for advanced glycation end products in mice” (Scientific Reports, 2017).)
